Key:
A20 cells = test: A20 mouse B-cell lymphoma animal model, tumor growth in Balb/c mice; type: in vivo
Method: The animal experiment was carried out in accordance with the requirements of AAALAC, and was approved by Bikai Animal Experiment Center IACUC to conduct. 6-8 week-old Balb/c mice (16-20 grams) were purchased from Beijing Weitong Lihua Experimental Animal Technology Co., Ltd. Each mouse was subcutaneously inoculated with 500,000 A20 cells, and inoculated on the right rear side of the back of the mouse. When the volume of the tumor grew to about 60mm^3, the mice were randomly assigned to the control group and the experimental group.
Mice were euthanized whnmorbidity or weightloss>20% was observed. Tumors were measured with a caliper twice weekly until final sacrifice. When a tumor size reached approximately 2000 mm^3 or there were animal health issues (20% area of a tumor ulcerated), the animals would be euthanized an date of death recorded. Solid tumor volumes were estimated from two dimensional tumor measurements and calculated according to the following equation:
Tumor volume (mm 3)=[length(mm)×width2 (mm 2)]/2
The percent median regression for a group at a given day was then obtained by taking the median of the individual percent regression calculated for each animal of the group at this day. The day of calculation was determined on the day when ΔT/ΔC (i.e., the ratio of medians of tumor volume changes from baseline between the treated and control groups)was calculated, except when median percent regression was not representative of the activity of the group. In that case, the day was determined on the first day when the median percent regression was maximal. Regressions were defined as partial (PR) if the tumor volume decreased to 50% of the tumor volume at the start of treatment. Complete regression (CR) was considered to have been achieved when tumor volume was below 14 mm^3 or could not be recorded. • RTV: Relative Tumor Volume. RTV=Vt/V0∘ Vt: Tumor volume at the end of an experimental period (treatment group). V0: tumor volume at the beginning of the experiment • TGI: Tumor Growth Inhibition value. TGI=[1−RTV(experimental group)/RTV(control group)]*100%
A two-way ANOVA type with factors treatment an day(repeated) was performed on tumor volume changes from baseline. In case of significant treatment day interaction or treatment effects, it was followed by a contrast analysis with Bonferroni-Holm correction for multiplicity to compare all treated groups to the control group at each day from day 8 to 27. Tumor volume changes from baseline were calculated for each animal and each day by subtracting the tumor volume on the day of first treatment from the tumor volume on the specified observation day. As heterogeneity of variances was observed between groups, the compound symmetric(CS) covariance structure with group=option was chosen for the ANOVA type model (SAS Institute Inc. (2008) SAS/STAT 9.2User′s Guide by CaryNC). All statistical analyses were performed using SAS version v9.2 software. A probability less than 5% (p<0.05).
6-8 weeks old balb/c mice (18-20 g) were purchased from Beijing Weitong Lihua Experimental Animal Technology Co., Ltd., and each mouse was subcutaneously inoculated with 500,000 A20 cells on the right rear side of the mouse's back. Treatment was initiated when tumors grew to a volume of approximately 62 mm^3. CN401 was orally administered at 150 mg/kg twice a day for 3 weeks.
CN202 was administered by intraperitoneal injection, 3 times a week at a dose of 5 mg/kg for 3 weeks. The control group was treated with vehicle (0.5% MC and PBS) without active product. Tumor size and body weight were measured three times a week. This animal experiment was carried out in accordance with the requirements of AAALAC, and was approved by Bikai Animal Experiment Center IACUC to conduct this animal experiment.
Referring to the experimental method of Example 1.1, the difference is that the dosage of CN202 is replaced by 15 mg/kg from 5 mg/kg. […]

[1] = tested on: EMT-6 cells (mouse triple-negative breast cancer cells); type: in vivo; conditions: Example 4, CN401 150 mg/kg oral, twice a week × 4 week (Table 12)
Method: Tumors were measured with a caliper twice weekly until final sacrifice. […] Solid tumor volumes were estimated from two dimensional tumor measurements and calculated according to the following equation: […]

Compound: Cc1nc(NC(=O)N2CCC[C@H]2C(N)=O)sc1-c1ccnc(C(C)(C)C(F)(F)F)c1 [Alpelisib, (2S)-1-N-[4-methyl-5-[2-(1,1,1-trifluoro-2-methylpropan-2-yl)pyridin-4-yl]-1,3-thiazol-2-yl]pyrrolidine-1,2-dicarboxamide, reference compound]
- CR(Number of mice with tumor regression/total amount of mice in each group) (A20 cells; Example 2.2, Alpelisib 50 mg/kg p.o. qd × 3 weeks, day 21): 0/7
- TGI % (A20 cells; Example 2.2, Alpelisib 50 mg/kg p.o. qd × 3 weeks, day 21 vs vehicle control, p=0.161): 37%

Compound: CC[C@H](Nc1ncnc2nc[nH]c12)c1oc2ccccc2c(=O)c1-c1cccc(F)c1 [CN401, (S)-2-(1-(9H-purin-6-ylamino)propylgroup)-3-(3-fluorophenyl)-4H-chromen-4-one]
- CR(Number of mice with tumor regression/total amount of mice in each group) (A20 cells; Example 1.1, CN401 150 mg/kg p.o. bid × 3 weeks, day 22): 2/8
- TGI % (A20 cells; Example 1.1, CN401 150 mg/kg p.o. bid × 3 weeks, day 22 vs vehicle control, p=0.034): 55%
- CR(Number of mice with tumor regression/total amount of mice in each group) (A20 cells; Example 1.2, CN401 150 mg/kg p.o. bid × 3 weeks, day 22): 2/8
- TGI % (A20 cells; Example 1.2, CN401 150 mg/kg p.o. bid × 3 weeks, day 22 vs vehicle control, p=0.034): 55%
- CR(Number of mice with tumor regression/total amount of mice in each group) (A20 cells; Example 2.1, CN401 150 mg/kg p.o. bid × 3 weeks, day 22): 0/7
- TGI % (A20 cells; Example 2.1, CN401 150 mg/kg p.o. bid × 3 weeks, day 22 vs vehicle control, p=0.028): 45%
- CR(Number of mice with tumor regression/total amount of mice in each group) (A20 cells; Example 3, CN401 150 mg/kg p.o. bid × 3 weeks, day 22): 2/8
- TGI % (A20 cells; Example 3, CN401 150 mg/kg p.o. bid × 3 weeks, day 22 vs vehicle control, p=0.034): 55%
- TGI % ([1]; 14th day vs vehicle control, p=0.87): 3%
- CR(Number of mice with tumor regression/total amount of mice in each group) ([1]; observed up to 80 days): 0/8

Compound: Anti-PD-L1 Ab: Anti-PD-L1 antibody (Atezolizumab), CAS Number: 1380723-44-3 [reference compound]
- CR(Number of mice with tumor regression/total amount of mice in each group) (A20 cells; Example 3, anti-PD-L1 Ab (atezolizumab) 5 mg/kg i.p. biw × 3 weeks, day 22): 0/8
- TGI % (A20 cells; Example 3, anti-PD-L1 Ab (atezolizumab) 5 mg/kg i.p. biw × 3 weeks, day 22 vs vehicle control, p=0.57): 15%
